Source: patent publication US7148212B2, “Process for production of steroid crystals, steroid crystals obtained thereby and pharmaceutical preparations containing them” (Schering AG, priority 2002, dated 2006)
Marks after values point to notes of the source that are not given here.

Experiment: Particle size distribution (Sympatec HELOS, dry dispersion)
Format: physicochemical
Experimental: Particle Size Distribution:
• Sympatec HELOS (H0445), dry dispersion system (RODOS), pressure 2 bar Content Uniformity Test: • Content Determination according to USP/Ph. Eur. for individual capsules after elution through HPLC with external calibration • Column: LiChrosphere 5μ RP-18 encapped, 150×3 mm • Eluent: acetonitrile/water=45/55 • Flow: 1 ml/min • Detection UV (272 nm) Active Ingredient Release: • Active ingredient release measured in 1000 mL water with 0.3% sodium dodecyl sulfate, 100 rpm • Content Determination y HPLC with external calibration • Column: LiChrosphere 5μ RP-18 encapped, 150×3 mm • Eluent: acetonitrile/water=45/55 • Flow: 1 ml/min • Detection UV (272 nm)

[1] = Example 1 microcrystals, ethyl acetate, three cycles 55/20° C., air dried
[2] = after drying on filter (ethyl acetate suspension)
[3] = after spray-drying (ethanol/water suspension)
[4] = suspension in ethanol/water (90/10) with 10% by weight microcrystalline J956, before drying
[5] = suspension in ethyl acetate with 14% by weight microcrystalline J956, before drying

## CCNC(=O)ON=Cc1ccc(C2CC3(C)C(CCC3(COC)OC)C3CCC4=CC(=O)CCC4=C23)cc1 (stereo not drawn) [J956, 11β-{4-[(ethylaminocarbonyl)oximinomethyl]phenyl}-17β-methoxy-17α-methoxymethyl-estra-4,9-dien-3-one]
[1]
  Particle size X10: 2.62 μm
  Particle size X50: 10.4 μm
[2]
  Particle size X10: 2.7 μm
  Particle size X50: 10.61 μm
  Particle size X90: 24 μm
[3]
  Particle size X10: 2.25 μm
  Particle size X50: 8.03 μm
  Particle size X90: 17 μm
  Particle size X100: 43 μm
[4]
  Particle size X10: 2.11 μm
  Particle size X50: 8.6 μm
  Particle size X90: 19 μm
  Particle size X100: 51 μm
[5]
  Particle size X10: 2.62*** μm
  Particle size X50: 10.4 μm
  Particle size X90: 24 μm
